According to patent US20170190705A1, “Compositions and Methods for Inhibiting BMP” (THE BRIGHAM AND WOMAN'S HOSPITAL, INC., priority 2014, published 2017):
Where two headings read alike, the source gives them in different places.

Legend:
Type in all cases: biochemical
MAP4K2 = biological target: T1, MAP4K2 (Homo sapiens, UniProt Q12851); experiment: Kinome profiling MAP4K2; conditions: for inhibition at 0.1 µM: 100 nM
T1 sequence (Q12851 1-820): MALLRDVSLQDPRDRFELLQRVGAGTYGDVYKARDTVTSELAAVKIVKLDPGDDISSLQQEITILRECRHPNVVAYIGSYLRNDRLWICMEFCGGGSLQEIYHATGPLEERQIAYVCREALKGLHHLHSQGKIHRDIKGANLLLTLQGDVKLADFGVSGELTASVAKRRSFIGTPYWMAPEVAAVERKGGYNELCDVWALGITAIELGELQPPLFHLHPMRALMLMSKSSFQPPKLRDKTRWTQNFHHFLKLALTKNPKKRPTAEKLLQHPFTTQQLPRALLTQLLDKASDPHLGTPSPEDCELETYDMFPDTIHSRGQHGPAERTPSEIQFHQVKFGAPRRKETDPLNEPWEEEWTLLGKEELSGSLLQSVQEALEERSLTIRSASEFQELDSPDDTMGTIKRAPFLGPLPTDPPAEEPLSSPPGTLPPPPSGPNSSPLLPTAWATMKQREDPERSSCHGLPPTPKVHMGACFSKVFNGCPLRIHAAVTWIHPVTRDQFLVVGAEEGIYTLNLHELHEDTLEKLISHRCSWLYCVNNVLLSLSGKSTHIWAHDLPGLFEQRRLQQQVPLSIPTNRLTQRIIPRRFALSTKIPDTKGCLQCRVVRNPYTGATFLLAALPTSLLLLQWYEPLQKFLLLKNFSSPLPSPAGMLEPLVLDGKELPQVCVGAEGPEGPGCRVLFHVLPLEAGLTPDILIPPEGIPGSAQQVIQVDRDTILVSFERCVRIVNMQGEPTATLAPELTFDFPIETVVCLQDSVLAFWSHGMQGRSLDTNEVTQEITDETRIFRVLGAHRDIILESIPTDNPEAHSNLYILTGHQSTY
Description: (§1) . The kinome-wide selectivity was determined following the methods previously reported by Mohedas et al., ACS Chem Biol 2013, 8, 1291-1302 and Sanvitale et al., PLoS One 2013, 8, e62721.

PI4-K-β = PI4-K-β (Homo sapiens, UniProt Q9UBF8); experiment: Kinome profiling PI4-K-β; conditions: read-out: Inhibitory activity PI4-K-β; for inhibition at 0.1 µM: 100 nM
Description: as §1

GSK3α = GSK3α (Homo sapiens, UniProt P49840); experiment: Kinome profiling GSK3α; conditions: read-out: Inhibitory activity GSK3α; for inhibition at 0.1 µM: 100 nM
Description: as §1

EPH-A4 = EPH-A4 (Homo sapiens, UniProt P54764); experiment: Kinome profiling EPH-A4; conditions: read-out: Inhibitory activity EPH-A4; for inhibition at 0.1 µM: 100 nM
Description: as §1

FLT-4 = FLT-4 (Homo sapiens, UniProt P35916); experiment: Kinome profiling FLT-4; conditions: read-out: Inhibitory activity FLT-4; for inhibition at 0.1 µM: 100 nM
Description: as §1

AXL = biological target: T2, AXL (Homo sapiens, UniProt P30530); experiment: Kinome profiling AXL; conditions: read-out: Inhibitory activity AXL; for inhibition at 0.1 µM: 100 nM
T2 sequence (P30530 26-894): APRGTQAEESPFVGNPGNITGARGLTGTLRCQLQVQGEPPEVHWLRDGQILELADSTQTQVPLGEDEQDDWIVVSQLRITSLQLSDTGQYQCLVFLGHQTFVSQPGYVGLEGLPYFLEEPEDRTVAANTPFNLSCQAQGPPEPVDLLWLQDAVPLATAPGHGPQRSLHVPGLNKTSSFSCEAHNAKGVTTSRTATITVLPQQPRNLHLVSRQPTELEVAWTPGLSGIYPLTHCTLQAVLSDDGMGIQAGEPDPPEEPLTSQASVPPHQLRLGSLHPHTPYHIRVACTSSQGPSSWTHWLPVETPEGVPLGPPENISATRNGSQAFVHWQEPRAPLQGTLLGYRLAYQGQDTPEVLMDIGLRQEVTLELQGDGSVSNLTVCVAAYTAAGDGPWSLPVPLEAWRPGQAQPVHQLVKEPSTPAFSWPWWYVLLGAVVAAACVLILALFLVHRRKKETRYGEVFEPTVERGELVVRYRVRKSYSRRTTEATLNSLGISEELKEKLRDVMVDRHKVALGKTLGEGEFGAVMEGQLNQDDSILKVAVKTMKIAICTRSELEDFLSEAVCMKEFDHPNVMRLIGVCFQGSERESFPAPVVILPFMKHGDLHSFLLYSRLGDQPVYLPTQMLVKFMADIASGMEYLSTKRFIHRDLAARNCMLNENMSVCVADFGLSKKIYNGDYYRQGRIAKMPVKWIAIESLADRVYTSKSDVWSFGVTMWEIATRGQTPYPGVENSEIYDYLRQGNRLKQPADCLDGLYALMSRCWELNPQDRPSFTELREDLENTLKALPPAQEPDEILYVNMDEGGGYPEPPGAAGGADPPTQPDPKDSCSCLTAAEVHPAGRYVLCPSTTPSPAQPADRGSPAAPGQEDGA
Description: as §1

BTK = BTK (Homo sapiens, UniProt Q06187); experiment: Kinome profiling BTK; conditions: read-out: Inhibitory activity BTK; for inhibition at 0.1 µM: 100 nM
Description: as §1

[1] = Table 4, read-out: Inhibitory Activity MAP4K2
[2] = read-out: Inhibitory activity MAP4K2

Sequence of PI4-K-β (Q9UBF8 whole entry): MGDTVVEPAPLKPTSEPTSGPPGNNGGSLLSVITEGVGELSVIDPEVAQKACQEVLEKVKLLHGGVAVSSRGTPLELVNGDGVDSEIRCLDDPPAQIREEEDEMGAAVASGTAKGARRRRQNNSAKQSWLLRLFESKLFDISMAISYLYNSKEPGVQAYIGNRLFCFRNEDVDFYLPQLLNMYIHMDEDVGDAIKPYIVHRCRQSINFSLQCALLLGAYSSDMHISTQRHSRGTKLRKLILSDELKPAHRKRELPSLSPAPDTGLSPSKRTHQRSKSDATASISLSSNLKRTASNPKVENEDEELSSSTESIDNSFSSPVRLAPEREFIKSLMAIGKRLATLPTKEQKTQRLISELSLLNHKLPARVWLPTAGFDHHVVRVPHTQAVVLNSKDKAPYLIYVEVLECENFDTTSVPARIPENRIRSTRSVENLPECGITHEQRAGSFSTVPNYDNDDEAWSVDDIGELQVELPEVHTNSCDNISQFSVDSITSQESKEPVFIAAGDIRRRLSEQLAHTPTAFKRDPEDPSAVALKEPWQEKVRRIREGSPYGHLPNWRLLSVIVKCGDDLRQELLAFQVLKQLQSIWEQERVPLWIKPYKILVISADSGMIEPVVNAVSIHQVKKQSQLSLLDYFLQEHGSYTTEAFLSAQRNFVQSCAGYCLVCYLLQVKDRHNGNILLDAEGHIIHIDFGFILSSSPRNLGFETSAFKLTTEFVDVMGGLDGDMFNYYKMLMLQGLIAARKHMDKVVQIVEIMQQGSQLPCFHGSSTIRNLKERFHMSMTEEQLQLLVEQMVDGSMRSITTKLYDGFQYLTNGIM
Sequence of BTK (Q06187 whole entry): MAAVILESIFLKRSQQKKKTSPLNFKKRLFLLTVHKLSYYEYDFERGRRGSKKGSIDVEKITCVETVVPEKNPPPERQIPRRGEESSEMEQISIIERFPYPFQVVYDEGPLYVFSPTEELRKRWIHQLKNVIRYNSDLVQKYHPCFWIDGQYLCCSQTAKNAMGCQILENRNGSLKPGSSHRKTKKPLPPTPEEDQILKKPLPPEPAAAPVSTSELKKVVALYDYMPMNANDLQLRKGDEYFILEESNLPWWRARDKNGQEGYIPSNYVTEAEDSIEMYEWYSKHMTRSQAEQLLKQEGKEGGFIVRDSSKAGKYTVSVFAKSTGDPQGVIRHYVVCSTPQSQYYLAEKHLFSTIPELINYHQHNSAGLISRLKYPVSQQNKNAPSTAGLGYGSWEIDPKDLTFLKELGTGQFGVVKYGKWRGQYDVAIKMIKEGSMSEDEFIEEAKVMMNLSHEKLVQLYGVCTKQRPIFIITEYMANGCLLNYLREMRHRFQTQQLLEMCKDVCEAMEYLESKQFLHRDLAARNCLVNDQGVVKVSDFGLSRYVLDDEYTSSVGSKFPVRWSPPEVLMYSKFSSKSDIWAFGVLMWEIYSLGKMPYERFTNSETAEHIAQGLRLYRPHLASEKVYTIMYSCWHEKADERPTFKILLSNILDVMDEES
Sequence of EPH-A4 (P54764 20-986): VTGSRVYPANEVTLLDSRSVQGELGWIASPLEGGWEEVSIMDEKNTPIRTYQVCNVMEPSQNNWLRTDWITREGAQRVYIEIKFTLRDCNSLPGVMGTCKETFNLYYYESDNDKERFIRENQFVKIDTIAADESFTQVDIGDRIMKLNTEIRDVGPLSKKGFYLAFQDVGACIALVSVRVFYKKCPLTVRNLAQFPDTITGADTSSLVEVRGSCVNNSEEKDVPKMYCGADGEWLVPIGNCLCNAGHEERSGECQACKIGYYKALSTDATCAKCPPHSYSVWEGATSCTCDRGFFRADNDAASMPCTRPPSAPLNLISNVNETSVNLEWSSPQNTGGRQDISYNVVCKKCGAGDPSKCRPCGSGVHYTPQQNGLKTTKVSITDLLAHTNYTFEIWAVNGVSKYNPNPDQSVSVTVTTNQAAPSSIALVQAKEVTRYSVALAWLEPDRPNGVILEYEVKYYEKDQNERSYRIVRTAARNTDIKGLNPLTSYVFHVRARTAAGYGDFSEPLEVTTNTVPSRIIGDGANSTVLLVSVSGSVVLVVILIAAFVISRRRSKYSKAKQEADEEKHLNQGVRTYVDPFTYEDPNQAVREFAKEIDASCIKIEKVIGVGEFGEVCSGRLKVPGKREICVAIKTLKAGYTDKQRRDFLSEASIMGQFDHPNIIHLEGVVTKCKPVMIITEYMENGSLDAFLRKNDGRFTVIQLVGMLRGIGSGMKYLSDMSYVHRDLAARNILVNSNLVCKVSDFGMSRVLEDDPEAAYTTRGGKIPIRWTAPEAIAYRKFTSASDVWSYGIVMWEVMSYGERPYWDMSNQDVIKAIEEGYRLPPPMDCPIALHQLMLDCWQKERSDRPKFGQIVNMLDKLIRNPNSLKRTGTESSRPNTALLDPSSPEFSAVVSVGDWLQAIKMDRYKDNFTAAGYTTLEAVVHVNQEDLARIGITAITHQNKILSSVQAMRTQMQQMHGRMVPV
Sequence of FLT-4 (P35916 25-1363): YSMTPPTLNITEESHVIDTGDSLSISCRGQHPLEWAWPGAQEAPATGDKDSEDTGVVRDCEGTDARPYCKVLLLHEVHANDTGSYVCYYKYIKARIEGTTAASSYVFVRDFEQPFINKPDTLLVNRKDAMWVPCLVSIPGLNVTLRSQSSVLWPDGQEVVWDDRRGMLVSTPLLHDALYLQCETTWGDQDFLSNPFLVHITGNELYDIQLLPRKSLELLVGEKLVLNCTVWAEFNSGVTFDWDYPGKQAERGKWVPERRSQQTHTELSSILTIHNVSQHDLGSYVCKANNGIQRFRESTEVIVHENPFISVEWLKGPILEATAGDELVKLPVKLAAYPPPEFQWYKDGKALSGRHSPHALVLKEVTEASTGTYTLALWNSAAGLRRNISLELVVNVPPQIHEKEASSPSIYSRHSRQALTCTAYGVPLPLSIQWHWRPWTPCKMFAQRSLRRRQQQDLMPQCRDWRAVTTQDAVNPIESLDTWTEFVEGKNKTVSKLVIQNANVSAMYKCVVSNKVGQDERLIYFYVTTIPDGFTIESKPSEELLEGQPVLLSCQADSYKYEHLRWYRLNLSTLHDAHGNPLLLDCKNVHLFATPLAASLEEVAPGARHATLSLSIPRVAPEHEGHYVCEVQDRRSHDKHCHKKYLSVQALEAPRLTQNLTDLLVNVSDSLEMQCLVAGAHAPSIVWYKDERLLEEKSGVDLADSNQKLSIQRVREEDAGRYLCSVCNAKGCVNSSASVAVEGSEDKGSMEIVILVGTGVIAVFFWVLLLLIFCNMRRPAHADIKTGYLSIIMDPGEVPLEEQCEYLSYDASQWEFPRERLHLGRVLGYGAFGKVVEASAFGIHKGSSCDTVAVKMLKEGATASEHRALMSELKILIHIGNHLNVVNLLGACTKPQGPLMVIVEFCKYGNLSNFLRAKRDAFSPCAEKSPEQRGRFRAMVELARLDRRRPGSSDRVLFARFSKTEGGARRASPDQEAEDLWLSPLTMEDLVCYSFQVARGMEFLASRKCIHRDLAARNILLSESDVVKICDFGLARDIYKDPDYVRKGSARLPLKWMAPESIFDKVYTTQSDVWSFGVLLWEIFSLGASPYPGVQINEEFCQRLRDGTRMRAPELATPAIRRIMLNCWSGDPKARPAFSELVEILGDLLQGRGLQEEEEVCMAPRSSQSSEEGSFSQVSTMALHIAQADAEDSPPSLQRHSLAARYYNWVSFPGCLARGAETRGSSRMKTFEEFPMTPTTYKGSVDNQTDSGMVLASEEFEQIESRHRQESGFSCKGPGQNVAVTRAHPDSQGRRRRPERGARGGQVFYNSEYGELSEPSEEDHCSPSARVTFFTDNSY
Sequence of GSK3α (P49840 whole entry): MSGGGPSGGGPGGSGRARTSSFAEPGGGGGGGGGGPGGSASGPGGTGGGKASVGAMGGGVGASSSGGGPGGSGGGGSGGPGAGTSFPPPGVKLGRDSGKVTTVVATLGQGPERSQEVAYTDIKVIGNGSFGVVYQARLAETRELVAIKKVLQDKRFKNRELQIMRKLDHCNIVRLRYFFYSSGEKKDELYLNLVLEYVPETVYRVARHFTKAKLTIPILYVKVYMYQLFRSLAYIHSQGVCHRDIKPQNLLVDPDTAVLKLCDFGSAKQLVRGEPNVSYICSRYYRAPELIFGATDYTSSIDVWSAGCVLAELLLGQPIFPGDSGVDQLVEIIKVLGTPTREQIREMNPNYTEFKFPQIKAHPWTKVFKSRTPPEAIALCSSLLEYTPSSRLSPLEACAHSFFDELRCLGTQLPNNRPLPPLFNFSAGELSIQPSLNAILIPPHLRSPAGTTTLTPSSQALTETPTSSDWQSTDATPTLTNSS

Row | SMILES | inhibition at 0.1 µM (MAP4K2; [1]) [%] | inhibition at 0.1 µM (MAP4K2; [2]) [%] | inhibition at 1 µM (MAP4K2; [1]) [%] | inhibition at 1 µM (MAP4K2; [2]) [%] | inhibition at 0.1 µM (PI4-K-β) [%] | inhibition at 1 µM (PI4-K-β) [%] | inhibition at 0.1 µM (GSK3α) [%] | inhibition at 1 µM (GSK3α) [%] | inhibition at 0.1 µM (EPH-A4) [%] | inhibition at 1 µM (EPH-A4) [%] | inhibition at 0.1 µM (FLT-4) [%] | inhibition at 1 µM (FLT-4) [%] | inhibition at 0.1 µM (AXL) [%] | inhibition at 1 µM (AXL) [%] | inhibition at 0.1 µM (BTK) [%] | inhibition at 1 µM (BTK) [%]
1 | COc1cc(-c2cc(-c3ccc(N4CCNCC4)cc3)cnc2C)cc(OC)c1OC [Compound 10, 1-(4-(6-methyl-5-(3,4,5-trimethoxyphenyl)pyridin-3-yl)phenyl)piperazine] | 16 | 16 | 61 | 61 | -10 | -15 | 1 | 1 | 7 | 5 | 3 | 9 | 1 | 7 | 1 | -2
2 | COc1cc(-c2cc(-c3ccc(N4CCNCC4)cc3)cnc2N)cc(OC)c1OC [Compound 15, 5-(4-(piperazin-1-yl)phenyl)-3-(3,4,5-trimethoxyphenyl)pyridin-2-amine] |  | 36 |  | 77 | 1 | 1 | 1 | 0 | -1 | 45 | 1 | 4 | -4 | -1 | 3 | 20
